Where a SMILES comes first, the peptide text is derived from it. [ ]: non-standard residue; d: D form. dPip = O=C(O)[C@H]1CCCCN1
Tests used:
[1] = target: Thrombin & trypsin (Homo sapiens) (UniProt P00734+P07477+P07478+P35030); assay: Ratio of association constant of thrombin and trypsin; assay type: protein assay
[2] = target: Prothrombin (Homo sapiens) (UniProt P00734); assay: Association constant for thrombin
[3] = Ratio of association constant of thrombin and plasmin
[4] = Ratio of association constant of thrombin and tissue-type plasminogen activator

SMILES | Ratio [1] | K ass [2] | Ratio [3] | Ratio [4]
N=C(N)NCCC[C@@H](C=O)NC(=O)CN(CCC1CCCCC1)C(=O)[C@H]1CCCCN1 | 0.9 | 5.4 L/µM | 16 | 770
CN(CC(=O)N[C@H](C=O)CCCN=C(N)N)C(=O)[C@H]1CCCCN1 | 24 | 22 L/µM | 730 | 5500
CCN(CC(=O)N[C@H](C=O)CCCN=C(N)N)C(=O)[C@H]1CCCCN1 | 25 | 33 L/µM | 3300 | 6600
CC(C)CCN(CC(=O)N[C@H](C=O)CCCN=C(N)N)C(=O)[C@H]1CCCCN1 | 2.7 | 16 L/µM | 270 | 4000
N=C(N)NCCC[C@@H](C=O)NC(=O)CN(CCc1ccccc1)C(=O)[C@H]1CCCCN1 | 32 | 87 L/µM | 200 | 14500
N=C(N)NCCC[C@@H](C=O)NC(=O)CN(C(=O)[C@H]1CCCCN1)c1ccccc1 | 15 | 16 L/µM | 400 | 4000

Results, then the compound that gave them:

Ratio [1] | K ass [2] | Ratio [3] | Ratio [4] | SMILES
20 | 10 L/µM | 10000 | 10000 | CC(C)N(CC(=O)N[C@H](C=O)CCCN=C(N)N)C(=O)[C@H]1CCCCN1
3.3 | 200 L/µM | 220 | 6700 | N=C(N)NCCC[C@@H](C=O)NC(=O)[C@@H]1CCCN1C(=O)[C@H]1CCCCN1 (H-[dPip]-Pro-Arg-aldehyde)
14 | 34 L/µM | 680 | 8500 | CCCN(CC(=O)N[C@H](C=O)CCCN=C(N)N)C(=O)[C@H]1CCCCN1
15 | 24 L/µM | 480 | 24000 | CC(C)CN(CC(=O)N[C@H](C=O)CCCN=C(N)N)C(=O)[C@H]1CCCCN1
4 | 24 L/µM | 200 | 4000 | N=C(N)NCCC[C@@H](C=O)NC(=O)CN(CCCc1ccccc1)C(=O)[C@H]1CCCCN1
1 | 10 L/µM | 77 | 1000 | N=C(N)NCCC[C@@H](C=O)NC(=O)CN(Cc1ccccc1)C(=O)[C@H]1CCCCN1

— ChEMBL document CHEMBL1128061, “N-substituted glycines as replacements for proline in tripeptide aldehyde thrombin inhibitors” (Bioorg Med Chem Lett, 1995)
